In patent publication US20150203526A1, “NOVEL 19-NOR-STEROIDS AND THEIR USE FOR TREATING PROGESTERONE- DEPENDENT CONDITIONS” (REPROS THERAPEUTICS INC., priority 2010, published 2015):
Converted amounts (≈) assume the structure as drawn. Where two headings read alike, the source gives them in different places.

How the values were obtained:
[1] = Thermodynamic solubility (solid shaken in solvent at 37° C., filtrate by LC/UV); format: physicochemical; settings: thermodynamic from solid
Description: Briefly, 300 ul of solvent (ethanol, 0.1 M HCl or distilled H2O) were added to 14-16 mg of the solid compound (5 parallel measurements per sample, per solvent, mean concentrations 93-107 mM). The mixtures were shaken at 37° C. for 24 and 72 hours. Concentrations of the filtrates were determined by liquid chromatography with UV detector (LC/UV) with 3-point calibration.
Crystal form was checked by X-ray powder diffraction (XRPD) after recovering the slurry at 24 and 72 hours. […] The exact cause of this observed phenomenon is not known.

[2] = Pharmacokinetic studies on clinical trial subjects after oral CDB-4124; format: in vivo, human; settings: oral CDB-4124, 12.5 mg vs 50 mg
Description: The maximum concentrations of CDB-4124 and its mono-demethylated metabolite (CDB-4453) for the 12.5 mg dose were 25% of the 50 mg dose. All liver toxicities resolved in those women that returned for safety follow-ups, including those subjects that developed liver-associated serious adverse effects (SAEs).
Pharmacokinetic studies performed on participating subjects detected a high Cmax and a Tmax at 1-2 hours following administration. […] Metabolism of CDB-4124 by the liver provides the opportunity for liver damage and greatly reduces the concentration of the antiprogestin before it reaches the systemic circulation. Thus, alternative routes of administration of antiprogestins that avoid first pass metabolism such as, without limitation, intravenous, intramuscular, and sublingual, should allow antiprogestins to be absorbed directly into the systemic circulation and thereby provide a method for treating progestone-dependent conditions while avoiding liver toxicity. Administration routes which avoid first pass metabolism may also require less drug per dose to achieve the same therapeutic benefit relative to oral administration.

[3] = Oral vs vaginal pharmacokinetics in beagles (25 mg); format: in vivo
Description: FIG. 1 illustrates a comparison of the Cmax (peak serum concentration) and area under the curve (AUC) following oral and vaginal administration of CDB-4124 or CDB-4453 at a 25 mg dose in beagles.
Beagles were administered 25 mg of CDB-4124 or CDB-4453 (the monodemethylated metabolite of CDB-4124) formulated as either a micronized powder or a vaginal suppository. […] Moreover, systemic exposure of the drug is much lower when administered locally (compare AUC for CDB-4124 and CDB-4453 when administered vaginally vs. orally).

[4] = organic solvent or mixture, ethanol, read-out: Thermodynamic solubility, Ethanol, Mean
[5] = simulated gastric fluid, 0.1M HCl, read-out: Thermodynamic solubility, 0.1M HCl, Mean

Row | SMILES | solubility thermodynamic at 24 h [1, 4] [µM] | solubility thermodynamic at 72 h [1, 4] [µM] | solubility thermodynamic at 24 h [1, 5] [µM] | solubility thermodynamic at 72 h [1, 5] [µM] | solubility thermodynamic at 24 h ([1]; distilled water, read-out: Thermodynamic solubility, Distilled water, Mean) [µM] | solubility thermodynamic at 72 h ([1]; distilled water, read-out: Thermodynamic solubility, distilled water, Mean) [µM] | Maximum concentration for the 12.5 mg dose relative to the 50 mg dose [2] [%] | Metabolism after peak plasma concentration ([3]; oral micronized powder) | Metabolism ([3]; vaginal suppository) | Peak plasma concentrations (Cmax) ([3]; vaginal suppository) | Systemic exposure (AUC), local vs oral ([3]; vaginal vs oral)
1 | CC(=O)O[C@]1(C(C)=O)CC[C@H]2[C@@H]3CCC4=CC(=O)CCC4=C3[C@@H](c3ccc(C(C)=O)cc3)C[C@@]21C [REP-4510, 17α-acetoxy-11β-(4-acetylphenyl)-19-norpregna-4,9-dien-3,20-dione] | 3300 (≈ 1570 µg/mL) | 2900 (≈ 1380 µg/mL) | 0.5 (≈ 0.237 µg/mL) | 0.45 (≈ 0.214 µg/mL) | 0.52 (≈ 0.247 µg/mL) | 0.44 (≈ 0.209 µg/mL) |  |  |  |  | 
2 | CNc1ccc([C@H]2C[C@@]3(C)[C@@H](CC[C@]3(OC(C)=O)C(=O)COC)[C@@H]3CCC4=CC(=O)CCC4=C32)cc1 [CDB-4453] |  |  |  |  |  |  | 25 | rapidly metabolized | metabolized slowly | relatively low | much lower
